According to patent US4696930A, “N-(heteroarylalkyl)acylanilide derivatives as antiarrhythmic agents” (Hoffmann-La Roche Inc., priority 1985, dated 1987):
Like-named read-outs stand apart in the source and are kept apart here.

Columns and labels:
[1] = tested on: Platelet Activating Factor (PAF) induced aggregation of human platelet rich plasma; assay: Inhibition of platelet activating factor (PAF) induced platelet aggregation; assay type: cell-based; conditions: human PRP, PAF 1 μM, first phase response
Procedure: Human platelet rich plasma (PRP) and platelet poor plasma (PPP) are prepared from 0.38% sodium citrate treated blood. PRP is obtained by centrifugation at 180×g for 10 minutes and PPP by centrifuging the remaining red cell layer 1000×g for 10 minutes. Aggregation is determined by the turbidometric method of Born which was cited above, and monitored at 37° C. with a Payton dual channel module with stirring speed set at 900 rpm. PRP (0.45 ml) is added to a siliconized cuvette and prewarmed to 37° C. Zero and 100% light transmission are set with PRP and PPP, respectively. PAF (50 μl) is added to the stirring PRP one minute after the addition of 5 μl of the compound to be tested. PRP prepared from citrated human blood will aggregate when stirred in the presence of PAF giving a two phase response. The first phase is caused by PAF and the second phase is caused by the release of arachidonic acid. PAF is used at 1 μM and only the first phase response, about 30% aggregation, is evaluated. The first phase is resistant to indomethacin. 50% inhibition of the 1st phase PAF response is calculated from dose curves and represented as IC50 values. […] Activities of compounds of the invention in this test can be found in Table III below.

Thromboxane Synthase = assay: Thromboxane synthase inhibition (Table III, enzyme source not stated); assay type: biochemical; conditions: platelet species not stated, read-out: Thromboxane Synthase Inh. IC50
Procedure: (§1) Rac.-2-amino-N-(2,6-dimethylphenyl)-N-[3-(3-pyridinyl)propyl]propanamide dihydrochloride was tested for its inhibitory effects on thromboxane A2 synthetase (washed rabbit platelet) activity in vitro.
(§2) Therefore, rac.-2-amino-N-(2,6-dimethylphenyl)-N-[3-(3-pyridinyl)propyl]propanamide dihydrochloride is useful in the treatment of ischemic heart disease.

[2] = tested on: Ouabain-induced ventricular arrhythmia; assay: Effectiveness against ouabain-induced ventricular arrhythmia in anesthetized dogs; assay type: in vivo, dog; conditions: for minimal effective dose: Canis lupus familiaris, iv; for minimal effective dose / No. of effective cases/No. of experiments: dog
Procedure: Ventricular arrhythmia in an anesthetized dog was induced by an intravenous administration of ouabain. An initial i.v. dose of 40 μg/kg was administered, then 20 μg/kg i.v. 30 minutes later and then additional 10 μg/kg i.v. every 15 minutes until ventricular arrhythmia developed. […] The test compound, which was rac.-2-amino-N-(2,6-dimethylphenyl)-N-[3-(3-pyridinyl)propyl]propanamide dihydrochloride, dissolved in saline solution, was injected into the femoral vein 10 min. after the development of the arrhythmia. The dose schedule for the test compound was 1, 3 and 10 mg/kg i.v. in this order at 15 minute intervals until the arrhythmia was reversed to sinus rhythm.
Effectiveness against Ouabain-induced
Ventricular Arrhythmia in Dogs
MED: Minimum effective dose was measured by successive injections of 1, 3
and 10 mg/kg into the femoral vein at 15 minuteintervals until
ouabaininduced arrhythmia was reversed to the sinus rhythm.

[3] = tested on: Arachidonic Acid (AA) induced aggregation of human platelet rich plasma; assay: Inhibition of arachidonic acid (AA) induced platelet aggregation; assay type: cell-based; conditions: 2 min, human PRP, AA 0.3 to 1 mM
Procedure: Human platelet rich plasma (PRP) and platelet poor plasma (PPP) are prepared from 0.38% sodium citrate treated blood. PRP is obtained by centrifugation at 180×g for 10 minutes and PPP by centrifuging the remaining red cell layer 1000×g for 10 minutes. Aggregation is determined by the turbidometric method of Born G.V.R., Nature, 194, 927, (1962), and monitored at 37° C. with a Payton dual channel module with stirring speed set at 900 rpm. PRP (0.45 ml) is added to a siliconized cuvette and prewarmed to 37° C. Zero and 100% light transmission are set with PRP and PPP, respectively. AA (50 μl) is added to the stirring PRP one minute after the addition of 5 μl of the compound to be tested. A threshold dose (0.3 to 1 mM) of AA is chosen which causes maximum aggregation at about 2 minutes. […] Activities of compounds of the invention in this test can be found in Table III below.

[4] = tested on: ventricular arrhythmias induced by 2-stage ligation of the coronary artery; assay: Ventricular arrhythmias induced by 2-stage ligation of the coronary artery (Harris dogs); assay type: in vivo, dog (mongrel); conditions: for incidence of ventricular premature contractions and conversion to sinus rhythm: n=5
Procedure: (2) Test for effectiveness against ventricular arrhythmias induced by 2-stage ligation of the coronary artery in dogs (Harris dogs)
Mongrel dogs weighing between 8-14 kg were anesthetized using 30 mg/kg i.v. of sodium pentobarbital. They were artificially ventilated with room air. After thoracotomy via the fourth left intercostal space, the pericardium was opened. The left anterior descending artery was dissected free for a few millimeters near the distal edge of the […] and ligated there in two stages being separated by an interval of 30 minutes. […] Electrograms were monitored continuously throughout the experiment and the number of ventricular and sinus beats (expressed per minute) was counted for 5 minutes every 15 or 30 minutes after p.o. administration of compound and the percentage of ventricular premature beats were calculated.

[5] = tested on: collagen-induced rabbit platelet aggregation; assay: Ex vivo inhibition of collagen-induced rabbit platelet aggregation by plasma of orally treated rats; assay type: in vivo, rabbit platelets; plasma of treated rats; conditions: for collagen-induced platelet aggregation, % of control: 4 rats, 1 hour after dosing, collagen 3 μg/ml, control = 100%
Procedure: (4) Ex vivo experiments: Inhibition of rabbit platelet aggregation induced by collagen by the plasma of rats treated with oral rac.-2-amino-N-(2,6-dimethylphenyl)-N-[3-(3-pyridinyl)propyl]propanamide dihydrochloride
The antiplatelet aggregatory activity of rac.-2-amino-N-(2,6-dimethylphenyl)-N-[3-(3-pyridinyl) propyl]propanamide dihydrochloride was observed ex vivo in rats.
control. The control = 100% platelet aggregation.
An aliquot (125 μl) of the platelet free plasma of the rats which had
been orally treated with compound for 1 hour was added to the platelet
rich plasma (125 μl) of the rabbit. Collagen (3 μg/ml) induced
platelet aggregation was measured turbidimetrically.

[6] = molecular target: T1, thromboxane A2 synthetase (Homo sapiens, UniProt P24557); assay: Thromboxane A2 synthetase inhibition, human platelets, PG H2 substrate; assay type: biochemical; conditions: PG H2 as the substrate, read-out: thromboxane A2 synthetase inhibition IC50 range
T1 construct: thromboxane A2 synthetase activity of human platelets; from tissue; host or cells: human platelets
T1 sequence (P24557 1-533): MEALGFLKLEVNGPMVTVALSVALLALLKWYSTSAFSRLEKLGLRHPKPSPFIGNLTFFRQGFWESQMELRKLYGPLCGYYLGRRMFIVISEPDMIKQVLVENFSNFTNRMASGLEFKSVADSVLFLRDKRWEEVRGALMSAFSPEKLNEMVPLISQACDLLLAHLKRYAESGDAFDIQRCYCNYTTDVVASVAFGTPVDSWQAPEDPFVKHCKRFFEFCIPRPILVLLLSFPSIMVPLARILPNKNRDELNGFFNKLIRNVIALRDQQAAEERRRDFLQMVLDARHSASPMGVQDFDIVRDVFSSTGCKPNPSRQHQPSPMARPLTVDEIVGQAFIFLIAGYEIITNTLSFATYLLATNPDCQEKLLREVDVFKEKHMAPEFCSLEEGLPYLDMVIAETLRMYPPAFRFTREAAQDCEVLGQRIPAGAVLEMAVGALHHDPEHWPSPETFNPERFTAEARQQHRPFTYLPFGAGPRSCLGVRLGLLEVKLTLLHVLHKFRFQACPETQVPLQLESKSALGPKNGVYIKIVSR
From the text: as §2

[7] = molecular target: T2, thromboxane A2 synthetase (Oryctolagus cuniculus, UniProt G1TAZ9); assay: Thromboxane A2 synthetase inhibition, washed rabbit platelets, C^14-arachidonic acid substrate; assay type: biochemical; conditions: in vitro
T2 construct: Using washed rabbit platelets as the enzyme sources; from tissue; host or cells: washed rabbit platelets
T2 sequence (G1TAZ9 1-530): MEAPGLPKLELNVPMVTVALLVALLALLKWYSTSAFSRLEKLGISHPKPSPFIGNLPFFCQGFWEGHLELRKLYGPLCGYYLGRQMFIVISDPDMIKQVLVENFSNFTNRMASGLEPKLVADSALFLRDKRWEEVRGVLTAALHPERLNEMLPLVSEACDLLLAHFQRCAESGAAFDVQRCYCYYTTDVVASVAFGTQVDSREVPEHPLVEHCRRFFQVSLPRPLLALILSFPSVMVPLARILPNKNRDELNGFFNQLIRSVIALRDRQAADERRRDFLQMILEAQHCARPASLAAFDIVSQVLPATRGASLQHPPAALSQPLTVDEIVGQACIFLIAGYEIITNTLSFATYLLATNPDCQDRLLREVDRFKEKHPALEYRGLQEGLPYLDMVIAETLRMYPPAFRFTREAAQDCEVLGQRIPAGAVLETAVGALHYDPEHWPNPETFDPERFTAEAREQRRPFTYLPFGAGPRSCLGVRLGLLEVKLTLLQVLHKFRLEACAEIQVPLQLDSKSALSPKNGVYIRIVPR
Procedure: as §1, §2

[8] = read-out: Ouabain Induced Arrhythmias MED, Table III

Compound | IC50 [1] | IC50 (Thromboxane Synthase) | IC50 [3] | minimal effective dose [2, 8] | other results
Cc1cccc(C)c1N(CCCc1cccnc1)C(=O)Cn1ccnc1 | 1 µM | 0.1 to 1 µM | > 10 µM | – | Ouabain Induced Arrhythmias: number dead/number tested ([2]; dead at 1 mg/kg IV): 1/2
Cc1cccc(C)c1N(CCn1ccnc1)C(=O)CCCc1cccnc1 | 0.5 µM | 0.1 to 1 µM | 0.5 µM | – | Ouabain Induced Arrhythmias: number dead/number tested ([2]; dead at 3 mg/kg IV): 1/2
Cc1ccc(N(CCCc2cccnc2)C(=O)C(C)N)cc1 (racemic) [H H CH3, rac.-2-amino-N-(4-methylphenyl)-N-[3-(3-pyridinyl)propyl]propanamide] | – | 10 to 100 µM | – | > 10 mg/kg | –
CC(N)C(=O)N(CCCc1cccnc1)c1ccccc1 (racemic) [H H H, rac.-2-amino-N-phenyl-N-[3-(3-pyridinyl)propyl]propanamide] | – | 10 to 100 µM | – | > 10 mg/kg | –
Cc1cccc(C)c1N(CCCc1cccnc1)C(=O)C(C)N.Cl.Cl (racemic) [rac.-2-amino-N-(2,6-dimethylphenyl)-N-[3-(3-pyridinyl)propyl]propanamide dihydrochloride] | 20 µM | 10 to 100 µM | 5 µM | 4.4 ± 1.4 mg/kg | onset of the antiarrhythmic effects ([4]; 30 mg/kg p.o.): approximately 1 hour; time of maximum effect after dosing ([4]; 30 mg/kg p.o.): 5 h; percentage of ventricular premature beats at maximum effect ([4]; 30 mg/kg p.o., 5 hours after dosing, from 94±1.5%, p<0.01): 13±7.9%; incidence of ventricular premature contractions and conversion to sinus rhythm ([4]; 30 mg/kg p.o.): dramatically decreased the incidence of ventricular premature contractions (VPCs) and converted ventricular arrhythmias to sinus rhythm; onset of the antiarrhythmic effects ([4]; 100 mg/kg p.o.): ~2 h; time of maximum effect after dosing ([4]; 100 mg/kg p.o.): 2.5 h; percentage of ventricular premature beats at maximum effect ([4]; 100 mg/kg p.o., 2.5 hours after dosing, from 94±0.5%, p<0.05): 10±9.5%; incidence of ventricular premature contractions and conversion to sinus rhythm ([4]; 100 mg/kg p.o.): dramatically decreased the incidence of ventricular premature contractions (VPCs) and converted ventricular arrhythmias to sinus rhythm; duration of the antiarrhythmic effects after dosing ([4]; 30 and 100 mg/kg p.o.): at least 6 hours; collagen-induced platelet aggregation, % of control ([5]; 50 mg/kg p.o.): 77.1 ± 11.7 % of control; collagen-induced platelet aggregation, % of control ([5]; 100 mg/kg p.o., p < 0.01): 64.8 ± 6.2 % of control; collagen-induced platelet aggregation, % of control ([5]; 200 mg/kg p.o., p < 0.01): 40.3 ± 14.0 % of control; ED50 ([5]; Rattus norvegicus, Platelet, po, plasma of rats treated orally for 1 hour, read-out: ED50, inhibition of collagen-induced rabbit platelet aggregation (95% confidence limit)): 123 mg/kg; ED50, inhibition of collagen-induced rabbit platelet aggregation (95% confidence limit) ([5]; plasma of rats treated orally for 1 hour, dihydrochloride, 60 min): 123 (85-274) mg/kg p.o.; IC50 [6]: 1 to 10 µM; No. of effective cases/No. of experiments ([2]; 1 mg/kg i.v.): 0/4; No. of effective cases/No. of experiments ([2]; 3 mg/kg i.v.): 4/5; No. of effective cases/No. of experiments ([2]; 10 mg/kg i.v.): 1/1; minimal effective dose ([2]; 0.25 h, successive injections of 1, 3 and 10 mg/kg at 15 minute intervals, read-out: MED (minimum effective dose), Table I): 4.4 ± 1.4 mg/kg; IC50 [7]: 38 µM
Cc1cccc(C)c1NC(=O)C(C)N (centres unmarked) [reference compound] | > 100 µM | – | > 100 µM | 15.5 ± 3.4 mg/kg | –

The next lines start with results.

IC50 [1] | IC50 (Thromboxane Synthase) | IC50 [3] | Compound | minimal effective dose [2, 8] | other results
> 10 µM | 10 to 100 µM | > 10 µM | Cc1cccc(C)c1N(CCCCc1cccnc1)C(=O)C(C)N (centres unmarked) | – | Ouabain Induced Arrhythmias: number converted/number tested ([2]; converted at 3 mg/kg IV): 1/3
– | 10 to 100 µM | – | Cc1cccc(C)c1N(CCCCCCc1cccnc1)C(=O)C(C)N (centres unmarked) | 8.3 ± 1.8 mg/kg | –
> 10 µM | ~10 µM | > 10 µM | Cc1cccc(C)c1N(CCCCn1ccnc1)C(=O)C(C)N (centres unmarked) | > 10 mg/kg | –
> 10 µM | 0.1 to 1 µM | > 10 µM | Cc1cccc(C)c1N(CCCc1cccnc1)C(=O)Cn1ccnc1C | > 10 mg/kg | –
